The values that follow come from publication PMC8068288, “Novel Thiol Containing Hybrid Antioxidant-Nitric Oxide Donor Small Molecules for Treatment of Glaucoma” (Antioxidants, 2021).

Structures are written as SMILES.

In the experiment the test system is NTM-5 cells. The experiment in a line: Superoxide scavenging ratio in NTM-5 cell supernatant (pyrogallol assay), with or without TBHP. In kind it is cell-based, human. The conditions noted are these: for AUC0-3h of superoxide scavenging ratio: NTM-5 cell supernatant, 18 h treatment, 0.1-1000 µM. On the procedure: The ROS scavenging ratio was determined using a chemical assay where WST-1 was used as superoxide scavenger produced by pyrogallol following a reported protocol. Briefly, the superoxide anion radical scavenging activity was determined spectrophotometrically by measuring the formation of WST-1 formazan at 450 nm. WST-1 (40 µL, 50 µM) was added to the compounds (or corresponding solution) in a final volume of 160 µL in 50 mM ammonium hydrogen carbonate buffer, 0.5 mM EDTA, pH 9.3. Reaction was launched by adding 40 µL 1 mM pyrogallol. The operation was based on the 96-well microplate, and measurement was performed at different time points under 37 °C by Cytation5 Microplate Reader. Baicalein (1 mM) was used as positive control. Compounds SA-2, SA-9, and SA-10 were used in concentrations ranging from 1 µM, 10 µM, 100 µM, and 1000 µM. The superoxide anion radical scavenging ratio % was calculated according to the following formula:Scavenging ratio (%) = A0 − (A1 − A2)/A0 × 100% […]
The experiments were repeated twice with four technical replicates.
Figure 2 Superoxide scavenging ability of SA compounds in buffer and cells. (a) The % of superoxide scavenging response from 1 mM concentration of SA-2, SA-9, and SA-10 in pyrogallol (Pyr, 1 mM) induced superoxide induction assay at different time points in buffer. The AUC0–2.5 h for SA-2, SA-9, and SA-10 were 1592 ± 37.87, 1355 ± 42.62, and 2350 ± 69.26, respectively. (b) Comparison of the % ROS scavenging activity of SA-2, SA-9, and SA-10 with control after 15 min of treatment of pyrogallol. (c) The superoxide scavenging ratio (%) after 18 h treatment of 10 µM concentration of SA-2, SA-9, and SA-10 to NTM-5 cell supernatant using pyrogallol induced superoxide induction assay at different time points. (d) The superoxide scavenging ratio (%) of 10 µM concentration of SA-2, SA-9, and SA-10 in NTM-5 cell supernatant. The cells were previously treated with 5.5 mM of TBHP for 30 min followed by SA compounds and incubated for 18 h. Control is untreated cells. Three technical replicates were used for each experiment and all experiments were repeated 2 times. * p < 0.05, ** p < 0.005, *** p < 0.001, **** p < 0.0001, One-way ANOVA for (b), and two-way ANOVA for (c,d).
Figure S1: Superoxide scavenging ability of SA compounds in buffer and cells. a) The % of superoxide scavenging response from different concentrations of SA-2, SA-9 and SA-10 in pyrogallol (1 µM, 10 µM, 100 µM and 1,000 µM) induced superoxide induction assay at 15 minutes time point in buffer solution. The […]
superoxide scavenging ratio (%) after 18h treatment of different concentrations (0.1 µM, 1 µM, 10 µM, 100 µM and 1,000 µM) of SA-2, SA-9 and SA-10 to NTM-5 cell supernatant with or without TBHP (5.5 mM) using pyrogallol induced superoxide induction assay at 3h time point. Control is untreated cells. The cells were previously treated with 5.5 mM of TBHP for 30 minutes followed by SA compounds and TBHP and incubated for 18h. Control is untreated cells. e) The AUC0-3h for SA-2, SA-9 and SA-10 were 18902 ± 2714, […]
for each experiment and all experiments were repeated 2 times. N = 3.
(1 picture or pasted object on this page, not shown here)

`Cl.[NH-]c1c[n+](C2CCSCC2)no1` [SA-9, (3-(tetrahydro-2H-thiopyran-4-yl)-1,2,3-oxadiazol-3-ium-5-yl)amide hydrochloride]: under “10 µM for 18 h, NTM-5 cells insulted with TBHP, TBHP alone 2.5%”, the “superoxide scavenging ability (ratio)” value is 20–25%. For the same molecule, the “fold prevention of the decrease in superoxide scavenging ability vs TBHP alone” value (10 µM for 18 h, TBHP-treated NTM-5 cells) is recorded as ~ 10 fold. The “AUC0-3h of superoxide scavenging ratio” value by setting is: (with TBHP 5.5 mM) 14120 ± 2023; (without TBHP) 21155 ± 1099.
